Results from publication PMC5218480 (PLoS ONE, 2017).

Test system: MV-4-11 cells
Assay: Gene expression microarray analysis (Affymetrix PrimeView) and GSEA
Type: cell-based, human
Design: RFU PODN (11730768_x_at) / Fold change /veh PODN (11730768_x_at) / RFU LINC00158 (11744669_a_at) / Fold change /veh LINC00158 (11744669_a_at) / RFU DUSP10 (11751237_a_at) / Fold change /veh DUSP10 (11751237_a_at) / RFU ID3 (11757404_x_at) / Fold change /veh ID3 (11757404_x_at) / RFU PLEKHG5 (11737974_s_at) / Fold change /veh PLEKHG5 (11737974_s_at) / RFU LRRC4B (11730491_at) / Fold change /veh LRRC4B (11730491_at) / RFU GIMAP4 (11747438_a_at) / Fold change /veh GIMAP4 (11747438_a_at) / RFU KRT8 (11758183_x_at) / Fold change /veh KRT8 (11758183_x_at) / RFU CNN1 (11734310_a_at) / Fold change /veh CNN1 (11734310_a_at) / RFU VPS37D (11726825_at) / Fold change /veh VPS37D (11726825_at) / RFU C10orf10 (11716522_x_at) / Fold change /veh C10orf10 (11716522_x_at) / RFU KIR2DL2 /// KIR2DL4 /// KIR2DL5A /// KIR2DL5B /// KIR2DS1 /// KIR2DS2 /// KIR2DS3 /// KIR2DS4 /// KIR3DL3 /// KIR3DL3 /// KIR3DS1 (11738374_at) / Fold change /veh KIR2DL2 /// KIR2DL4 /// KIR2DL5A /// KIR2DL5B /// KIR2DS1 /// KIR2DS2 /// KIR2DS3 /// KIR2DS4 /// KIR3DL3 /// KIR3DL3 /// KIR3DS1 (11738374_at) / RFU C1QL1 (11718748_at) / Fold change /veh C1QL1 (11718748_at) / RFU TMPRSS4 (11747572_a_at) / Fold change /veh TMPRSS4 (11747572_a_at) / RFU HAMP (11756126_x_at) / Fold change /veh HAMP (11756126_x_at) / RFU RNFT2 (11725882_a_at) / Fold change /veh RNFT2 (11725882_a_at) / RFU NR4A2 (11747474_a_at) / Fold change /veh NR4A2 (11747474_a_at) / RFU ABCC12 (11746883_a_at) / Fold change /veh ABCC12 (11746883_a_at) / RFU TMEM136 (11760407_x_at) / Fold change /veh TMEM136 (11760407_x_at) / RFU CLDN22 /// WWC2 (11732394_at) / Fold change /veh CLDN22 /// WWC2 (11732394_at) / RFU HLA-DPB1 (11760878_x_at) / Fold change /veh HLA-DPB1 (11760878_x_at) / RFU SPINT1 (11716480_a_at) / Fold change /veh SPINT1 (11716480_a_at) / RFU GAP43 (11754022_s_at) / Fold change /veh GAP43 (11754022_s_at) / RFU A4GNT (11735810_at) / Fold change /veh A4GNT (11735810_at) / RFU PRB3 (11715151_x_at) / Fold change /veh PRB3 (11715151_x_at) / RFU TUBB4B (11761932_at) / Fold change /veh TUBB4B (11761932_at) / RFU CAPN14 (11732068_a_at) / Fold change /veh CAPN14 (11732068_a_at) / RFU TMCC2 (11721928_a_at) / Fold change /veh TMCC2 (11721928_a_at) / RFU IRGQ (11745062_a_at) / Fold change /veh IRGQ (11745062_a_at) / RFU FAM174B (11720279_a_at) / Fold change /veh FAM174B (11720279_a_at) / RFU TMPRSS4 (11748680_a_at) / Fold change /veh TMPRSS4 (11748680_a_at) / RFU FAM212B (11763350_a_at) / Fold change /veh FAM212B (11763350_a_at) / RFU PLEKHG5 (11743358_a_at) / Fold change /veh PLEKHG5 (11743358_a_at) / RFU ZSCAN30 (11745921_a_at) / Fold change /veh ZSCAN30 (11745921_a_at) / RFU CMKLR1 (11741424_a_at) / Fold change /veh CMKLR1 (11741424_a_at) / RFU LOC101060620 /// MAPK8IP1 (11723275_at) / Fold change /veh LOC101060620 /// MAPK8IP1 (11723275_at) / RFU SPTSSB (11747773_x_at) / Fold change /veh SPTSSB (11747773_x_at) / RFU PRSS12 (11739890_at) / Fold change /veh PRSS12 (11739890_at) / RFU BIN1 (11741810_x_at) / Fold change /veh BIN1 (11741810_x_at) / RFU WNT11 (11732464_a_at) / Fold change /veh WNT11 (11732464_a_at) / RFU C10orf10 (11716521_a_at) / Fold change /veh C10orf10 (11716521_a_at) / RFU C5orf56 (11738089_at) / Fold change /veh C5orf56 (11738089_at) / RFU CYB561 (11721691_x_at) / Fold change /veh CYB561 (11721691_x_at) / RFU ANKRD19P (11752326_a_at) / Fold change /veh ANKRD19P (11752326_a_at) / RFU OR2T12 /// OR2T33 /// OR2T8 (11738714_s_at) / Fold change /veh OR2T12 /// OR2T33 /// OR2T8 (11738714_s_at) / RFU VCAN (11748164_a_at) / Fold change /veh VCAN (11748164_a_at) / RFU JSRP1 (11732532_at) / Fold change /veh JSRP1 (11732532_at) / RFU KRTAP10-11 (11738290_x_at) / Fold change /veh KRTAP10-11 (11738290_x_at) / RFU MYO3A (11730013_a_at) / Fold change /veh MYO3A (11730013_a_at) / RFU EBF3 (11725865_a_at) / Fold change /veh EBF3 (11725865_a_at) / RFU CAMK2N1 (11719241_x_at) / Fold change /veh CAMK2N1 (11719241_x_at) / RFU C5orf56 (11738088_a_at) / Fold change /veh C5orf56 (11738088_a_at) / RFU OLFML3 (11715873_a_at) / Fold change /veh OLFML3 (11715873_a_at) / RFU LOC100653217 /// NTM (11731650_a_at) / Fold change /veh LOC100653217 /// NTM (11731650_a_at) / RFU MAPK11 (11762145_a_at) / Fold change /veh MAPK11 (11762145_a_at) / RFU FIZ1 (11724087_x_at) / Fold change /veh FIZ1 (11724087_x_at) / RFU OASL (11726364_x_at) / Fold change /veh OASL (11726364_x_at) / RFU SOX15 (11748057_x_at) / Fold change /veh SOX15 (11748057_x_at) / RFU CD79A (11719716_a_at) / Fold change /veh CD79A (11719716_a_at) / RFU HIST1H1D (11736915_at) / Fold change /veh HIST1H1D (11736915_at) / RFU CASKIN2 (11723855_a_at) / Fold change /veh CASKIN2 (11723855_a_at) / RFU LOC730098 (11760151_x_at) / Fold change /veh LOC730098 (11760151_x_at) / RFU OR4N2 (11742367_at) / Fold change /veh OR4N2 (11742367_at) / RFU PRRT2 (11749266_a_at) / Fold change /veh PRRT2 (11749266_a_at) / RFU SNX32 (11753110_a_at) / Fold change /veh SNX32 (11753110_a_at) / RFU CDHR5 (11726645_a_at) / Fold change /veh CDHR5 (11726645_a_at) / RFU RCAN1 (11760418_a_at) / Fold change /veh RCAN1 (11760418_a_at) / RFU FAM167A (11723789_a_at) / Fold change /veh FAM167A (11723789_a_at) / RFU FAM26E (11764081_at) / Fold change /veh FAM26E (11764081_at) / RFU ISYNA1 (11749810_s_at) / Fold change /veh ISYNA1 (11749810_s_at) / RFU ACY1 (11761880_at) / Fold change /veh ACY1 (11761880_at) / RFU 11764098_at / Fold change /veh 11764098_at / RFU SAMD14 (11745864_x_at) / Fold change /veh SAMD14 (11745864_x_at) / RFU NPB (11741838_a_at) / Fold change /veh NPB (11741838_a_at) / RFU TMPRSS6 (11731388_a_at) / Fold change /veh TMPRSS6 (11731388_a_at) / RFU KRTAP10-2 (11738614_at) / Fold change /veh KRTAP10-2 (11738614_at) / RFU ARHGAP8 /// PRR5-ARHGAP8 (11727945_x_at) / Fold change /veh ARHGAP8 /// PRR5-ARHGAP8 (11727945_x_at) / RFU KRTAP5-7 /// NADSYN1 (11734609_at) / Fold change /veh KRTAP5-7 /// NADSYN1 (11734609_at) / RFU RASL12 (11751679_a_at) / Fold change /veh RASL12 (11751679_a_at) / RFU CDKN2B (11736163_a_at) / Fold change /veh CDKN2B (11736163_a_at) / RFU PRF1 (11729649_at) / Fold change /veh PRF1 (11729649_at) / RFU, ZNF638 /// ZNF638-IT1 / Fold change vs veh, ZNF638 /// ZNF638-IT1 / RFU, PANK3 / Fold change vs veh, PANK3 / RFU, SH3YL1 / Fold change vs veh, SH3YL1 / RFU, ZEB2 / Fold change vs veh, ZEB2 / RFU, NRIP1 / Fold change vs veh, NRIP1 / RFU, PTTG1IP / Fold change vs veh, PTTG1IP / RFU, CAPN2 / Fold change vs veh, CAPN2 / RFU, MED14 / Fold change vs veh, MED14 / RFU, SNORA58 / Fold change vs veh, SNORA58 / RFU, C1orf63 / Fold change vs veh, C1orf63 / RFU, LRRFIP1 / Fold change vs veh, LRRFIP1 / RFU, NDUFAF7 / Fold change vs veh, NDUFAF7 / RFU, SLC12A2 / Fold change vs veh, SLC12A2 / RFU, IBTK / Fold change vs veh, IBTK / RFU, ESF1 / Fold change vs veh, ESF1 / Fold change vs veh, TMEM50B / RFU, TAOK1 / Fold change vs veh, TAOK1 / RFU, ACBD3 / Fold change vs veh, ACBD3 / RFU, TMA16 / Fold change vs veh, TMA16 / RFU, RWDD3 / Fold change vs veh, RWDD3 / RFU, BCAT1 / Fold change vs veh, BCAT1 / RFU, EDEM3 / Fold change vs veh, EDEM3 / RFU, TMEM33 / Fold change vs veh, TMEM33 / RFU, WDR75 / Fold change vs veh, WDR75 / RFU, AHCTF1 / Fold change vs veh, AHCTF1 / RFU, TFRC / Fold change vs veh, TFRC / RFU, ZDHHC17 / Fold change vs veh, ZDHHC17 / RFU, NOM1 / Fold change vs veh, NOM1 / RFU, ARL8B / Fold change vs veh, ARL8B / RFU, ZBTB11 / Fold change vs veh, ZBTB11 / RFU, TAMM41 / Fold change vs veh, TAMM41 / RFU, KIAA1704 /// LOC100996395 / Fold change vs veh, KIAA1704 /// LOC100996395 / RFU, ING1 / Fold change vs veh, ING1 / RFU, TRMT61B / Fold change vs veh, TRMT61B / RFU, FUBP3 / Fold change vs veh, FUBP3 / RFU, TP53 / Fold change vs veh, TP53 / RFU, TNKS2 / Fold change vs veh, TNKS2 / RFU, ZFP14 / Fold change vs veh, ZFP14 / RFU, ACTR2 / Fold change vs veh, ACTR2 / RFU, PPP3R1 / Fold change vs veh, PPP3R1 / RFU, PIK3R1 / Fold change vs veh, PIK3R1 / RFU, HNRNPA1 / Fold change vs veh, HNRNPA1 / RFU, RNF170 / Fold change vs veh, RNF170 / RFU, ZNF28 / Fold change vs veh, ZNF28 / RFU, RNGTT / Fold change vs veh, RNGTT / RFU, OGT / Fold change vs veh, OGT / RFU, BRD1 / Fold change vs veh, BRD1 / RFU, MARS / Fold change vs veh, MARS / RFU, ZNF655 / Fold change vs veh, ZNF655 / RFU, FAHD1 / Fold change vs veh, FAHD1 / RFU, BDP1 / Fold change vs veh, BDP1 / RFU, LRRCC1 / Fold change vs veh, LRRCC1 / RFU, ARID1A / Fold change vs veh, ARID1A / RFU, ZNF146 / Fold change vs veh, ZNF146 / RFU, ZNF330 / Fold change vs veh, ZNF330 / RFU, GPN3 / Fold change vs veh, GPN3 / RFU, C9orf123 / Fold change vs veh, C9orf123 / RFU, N4BP2L2 / Fold change vs veh, N4BP2L2 / RFU, ARFIP1 / Fold change vs veh, ARFIP1 / RFU, FAM179B / Fold change vs veh, FAM179B / RFU, BCL10 / Fold change vs veh, BCL10 / RFU, UHRF1BP1L / Fold change vs veh, UHRF1BP1L / RFU, BET1 / Fold change vs veh, BET1 / RFU, CNOT2 / Fold change vs veh, CNOT2 / RFU, ZNF268 / Fold change vs veh, ZNF268 / Fold change vs veh, ZNF507 / RFU, DGCR2 / Fold change vs veh, DGCR2 / RFU, WDSUB1 / Fold change vs veh, WDSUB1 / Fold change vs veh, HSP90B1 /// MIR3652 / RFU, ADSS / Fold change vs veh, ADSS / RFU, GK / Fold change vs veh, GK / RFU, ZNF148 / Fold change vs veh, ZNF148 / RFU, TAF9 / Fold change vs veh, TAF9 / RFU, SLC1A5 / Fold change vs veh, SLC1A5 / RFU, SLMO2 / Fold change vs veh, SLMO2 / RFU, ABCC4 / Fold change vs veh, ABCC4 / RFU, LOC101060439 /// RAP1B / Fold change vs veh, LOC101060439 /// RAP1B / RFU, RFX7 / Fold change vs veh, RFX7 / RFU, GTPBP10 / Fold change vs veh, GTPBP10 / RFU, CNEP1R1 / Fold change vs veh, CNEP1R1 / RFU, BIVM-ERCC5 /// ERCC5 / Fold change vs veh, BIVM-ERCC5 /// ERCC5 / RFU, ILF3 / Fold change vs veh, ILF3 / RFU 11762660_at / Fold change /veh 11762660_at / RFU VCAN (11757783_s_at) / Fold change /veh VCAN (11757783_s_at) / RFU DDX43 (11728927_at) / Fold change /veh DDX43 (11728927_at) / RFU KRT8 (11758188_x_at) / Fold change /veh KRT8 (11758188_x_at) / RFU NKD1 (11759106_at) / Fold change /veh NKD1 (11759106_at) / RFU SRD5A1 (11742802_a_at) / Fold change /veh SRD5A1 (11742802_a_at) / RFU TPSAB1 /// TPSB2 (11721975_s_at) / Fold change /veh TPSAB1 /// TPSB2 (11721975_s_at) / RFU GSTM3 (11746129_a_at) / Fold change /veh GSTM3 (11746129_a_at) / RFU IL23R (11737362_x_at) / Fold change /veh IL23R (11737362_x_at) / RFU TMEM51 (11727254_a_at) / Fold change /veh TMEM51 (11727254_a_at) / RFU PIWIL2 (11732686_x_at) / Fold change /veh PIWIL2 (11732686_x_at) / RFU ORM1 (11744905_x_at) / Fold change /veh ORM1 (11744905_x_at) / RFU CCDC152 (11743942_at) / Fold change /veh CCDC152 (11743942_at) / RFU ECM1 (11717891_a_at) / Fold change /veh ECM1 (11717891_a_at) / RFU IL23R (11748794_a_at) / Fold change /veh IL23R (11748794_a_at) / RFU TNFAIP8L3 (11732012_x_at) / Fold change /veh TNFAIP8L3 (11732012_x_at) / RFU MBOAT4 (11741988_at) / Fold change /veh MBOAT4 (11741988_at) / RFU 11764193_at / Fold change /veh 11764193_at / RFU TMEM53 (11763286_at) / Fold change /veh TMEM53 (11763286_at) / RFU MAGEB2 (11727129_at) / Fold change /veh MAGEB2 (11727129_at) / RFU TMEM200A (11744735_a_at) / Fold change /veh TMEM200A (11744735_a_at) / RFU CCDC152 (11751479_a_at) / Fold change /veh CCDC152 (11751479_a_at) / RFU FAM211A (11726209_a_at) / Fold change /veh FAM211A (11726209_a_at) / RFU RGS16 (11746705_a_at) / Fold change /veh RGS16 (11746705_a_at) / RFU VCAN (11755009_s_at) / Fold change /veh VCAN (11755009_s_at) / RFU RHOB (11743442_s_at) / Fold change /veh RHOB (11743442_s_at) / RFU RGS16 (11720943_a_at) / Fold change /veh RGS16 (11720943_a_at) / RFU RGS16 (11720944_at) / Fold change /veh RGS16 (11720944_at) / RFU, VPS4B / Fold change vs veh, VPS4B / RFU, CREB1 / Fold change vs veh, CREB1 / RFU, DNAJC13 / Fold change vs veh, DNAJC13 / RFU, GNAQ / Fold change vs veh, GNAQ / RFU, CDK5R1 / Fold change vs veh, CDK5R1 / RFU, ZRANB3 / Fold change vs veh, ZRANB3 / RFU, CUL4A / Fold change vs veh, CUL4A / RFU, CCNY / Fold change vs veh, CCNY / RFU, UFL1 / Fold change vs veh, UFL1 / RFU, COG3 / Fold change vs veh, COG3 / RFU, DIAPH2 / Fold change vs veh, DIAPH2 / RFU, SKA2 / Fold change vs veh, SKA2 / RFU, AFF3 / Fold change vs veh, AFF3 / RFU, LMF1 / Fold change vs veh, LMF1 / RFU, IPO11 / Fold change vs veh, IPO11 / RFU, DFFB / Fold change vs veh, DFFB / RFU, FOXP1 / Fold change vs veh, FOXP1 / RFU, CARD8 / Fold change vs veh, CARD8 / RFU, STRN3 / Fold change vs veh, STRN3 / RFU, ADK / Fold change vs veh, ADK / RFU, RASSF2 / Fold change vs veh, RASSF2 / RFU, WIPF1 / Fold change vs veh, WIPF1 / RFU, LARP1B / Fold change vs veh, LARP1B / RFU, RASA1 / Fold change vs veh, RASA1 / RFU, RB1 / Fold change vs veh, RB1 / RFU, PPFIA1 / Fold change vs veh, PPFIA1 / RFU, MAT2A / Fold change vs veh, MAT2A / RFU, CCT5 / Fold change vs veh, CCT5 / RFU, WDR92 / Fold change vs veh, WDR92 / RFU, CUX1 / Fold change vs veh, CUX1 / RFU, TTC7A / Fold change vs veh, TTC7A / RFU, TMEM135 / Fold change vs veh, TMEM135 / RFU, DEPTOR / Fold change vs veh, DEPTOR / RFU, CPM / Fold change vs veh, CPM / RFU, DNAJB6 / Fold change vs veh, DNAJB6 / RFU, CACNA2D3 / Fold change vs veh, CACNA2D3 / RFU, DTX4 / Fold change vs veh, DTX4 / RFU, TFCP2 / Fold change vs veh, TFCP2 / RFU, GMCL1 /// GMCL1P1 / Fold change vs veh, GMCL1 /// GMCL1P1 / RFU, AEBP2 / Fold change vs veh, AEBP2 / RFU, SNHG1 /// SNORD22 /// SNORD25 /// SNORD26 /// SNORD27 /// SNORD28 /// SNORD29 /// SNORD31 / Fold change vs veh, SNHG1 /// SNORD22 /// SNORD25 /// SNORD26 /// SNORD27 /// SNORD28 /// SNORD29 /// SNORD31 / Fold change (Aza/veh), C12orf56 (ProbeSet 11735607_a_at) / Fold change (ACY-1035/veh), C12orf56 (ProbeSet 11735607_a_at) / Fold change (Aza/veh), FGFR1OP (ProbeSet 11751329_s_at) / Fold change (ACY-1035/veh), FGFR1OP (ProbeSet 11751329_s_at) / Fold change (Aza/veh), VPS36 (ProbeSet 11739960_a_at) / Fold change (ACY-1035/veh), VPS36 (ProbeSet 11739960_a_at) / RFU SYPL1 (11715823_x_at) / Fold change /veh SYPL1 (11715823_x_at) / RFU IGFBP7 (11715501_s_at) / Fold change /veh IGFBP7 (11715501_s_at) / RFU REEP3 (11722064_at) / Fold change /veh REEP3 (11722064_at) / RFU IGLL1 (11728026_x_at) / Fold change /veh IGLL1 (11728026_x_at): dose or concentration left out as unconfirmed
Details: ProbeSet 11747937_a_at; LIST D

Nc1ncn([C@@H]2O[C@H](CO)[C@@H](O)[C@H]2O)c(=O)n1 [azacitidine]
RFU, DNAJB6: 212.79 RFU
